System: E0771 cells
Assay: MTS assay of metabolic activity in E0771 cells
Type: cell-based, murine
Details: E0771, dose-response, 24 h, 1 % FBS
Method: Six thousand cells (MDAMB231 and E0771) per well were seeded in 96-well plates and cultured in medium containing 1 % FBS. Cells were treated with varying concentrations of compounds and, after 24 h, incubated with MTS [3-(4,5-dimethylthiazol-2-yl)-5-(3-carboxymethoxyphenyl)-2-(4 sulfophenyl)2Htetrazolium]and PMS (phenazine methosulfate), following the instructions of the CellTiter 96® Aqueous Non-Radioactive Cell Proliferation Assay (Promega). Measurements were performed using a TECAN Infinite M200 plate reader with […] at 490 nm.

How did the “metabolic activity (MTS assay)” value turn out when `O=C1/C(=C/c2ccc(-c3ccccc3)o2)C(C(F)(F)F)=NN1c1ccccc1F` [I29] was run?
The value was “superior efficacy of I29 over EN460”.

— article PMC13198932, “Pyrazolone-based ERO1 inhibitors in ERO1-driven triple-negative breast cancer and SEPN1-related myopathy: Structure–activity relationship and therapeutic potential” (Pharmacological research, 2025)
